Laboratory results as given in patent US20080019910A1, “Cancer Treatment and Cancer Treatment Efficacy Prediction by Blocking and Detecting Protease Inhibitors” (priority 2004, published 2008).

Tests used:
[1] = system: wild-type and PAI-1 gene-deficient fibrosarcoma cell lines; assay: Clonogenic assay (colony formation in soft agar); type: cell-based, mouse; details: PAI-1−/− versus wild type fibrosarcoma cells
Method: The cell lines described in Example 1 were used. The cells were in passage 35 (wild-type cells) and passage 50 (PAI-1 gene deficient cells). […] Gentle aspiration was repeated using a 1 ml syringe to achieve single cell suspension. 1 ml was then plated in triplicate in Petri dishes upon a feeder layer of SRBC (see separate paragraph for preparation of these). When the agar had solidified, 1 ml of media was added on top. 18-24 dishes were placed on plastic trays and two Petri dishes containing water were placed on each tray for conditioning. […] Colonies (>64 cells) were counted after 3 weeks. The experimental drugs were dissolved in media×300 the final concentration. […] Viable cells were counted after 8 minutes.

[2] = system: PAI-1 transfected PAI-1−/− fibrosarcoma cells; assay: LDH release after reintroduction of PAI-1 expression; type: cell-based, mouse; details: PAI-1−/−(PAI-1 pool) versus PAI-1−/− (vector pool) and parental PAI-1−/− cells
Method: Transfection of PAI-1−/− fibrosarcoma cells was performed by the use of Lipofectamine 2000 ([…]) according to the manufactures instructions employing 2×10^5 cells. After 2 days the cells were seed in tissue culture flasks and 100 μg/ml Hygromycin was added to the medium to select for transfected cells in pooled population. Experiments were performed 2 months after transfection. The sensitivity to apoptosis was measured by treating the cells with etoposide and TNF-α and detecting the LDH release as described in Example 4.

[3] = system: PAI-1+/+ fibrosarcoma cells; assay: LDH release cytotoxicity assay; type: cell-based, mouse; details: PAI-1+/+ cells
Text: (§1) The damage of the plasma membrane is classically evaluated as a parameter for cell death. In vivo the plasma membrane of apoptotic cells persists until the cell is phagocytised. In contrast, necrotic cell death results in leakage of cytoplasm to the extracellular environment, which leads to an inflammatory response. Under cell culture conditions, cells that have been subjected to an apoptotic stimulus will initially die by apoptosis, but later shift into secondary necrosis due to lack of phagocytosis in the cell culture. Cytotoxicity or cell lysis can be measured by determining the release of lactate dehydrogenase (LDH) in the culture supernatant. For this purpose the “Cytotoxicity detection kit” (Roche, Mannheim, Germany) was employed.
(§2) PAI-1−/− and PAI-1+/+ fibrosarcoma cells were seeded in a 96-well microtiter plate (2500 cells/well). Fifty μl of culture supernatant (total: 200 μl) is transferred to a new 96-well microtiter plate and mixed with 50 μl of a substrate mix. The remaining supernatant is discarded, and the remaining intact cells are lysed by addition of 200 μl of lysis buffer (1% Triton-X100 in CM). After 30 min lysis at 37° C., 50 μl of lysate is transferred to a new 96-well microtiter plate and mixed with 50 μl of a substrate mix. The cell culture supernatant and lysate are incubated for 10 min with the substrate mix protected from light. The absorbance is measured on a spectrophotometer at λ1=490 nm and reference λ2=650 nm. The amount of released LDH in % is related to total amount: [formula] Results

[4] = system: PAI-1−/− fibrosarcoma cells; assay: LDH release cytotoxicity assay; type: cell-based, mouse; details: for LDH release (% of total activity): PAI-1−/− cells; for sensitivity to treatment (LDH release): PAI-1−/− compared with PAI-1+/+ fibrosarcoma cells; for cell lysis (LDH release): both PAI-1−/− and PAI-1+/+ fibrosarcoma cells
Text: as §1, §2

[5] = system: TIMP-1 +/+ and TIMP-1 −/− fibrosarcoma cell lines; assay: DNA-histone complex assay; type: cell-based, mouse
[6] = system: TIMP-1−/− and TIMP-1+/+ fibrosarcoma cells; assay: LDH release cytotoxicity assay; type: cell-based, mouse
Text: as §1
TIMP-1−/− and TIMP-1+/+ fibrosarcoma cells (see above method for establishment of fibrosarcoma cells from mice) were seeded in a 96-well microtiter plate (2500 cells/well). After 24 hours, cells are treated with etoposide for 24 h. Fifty μl of culture supernatant (total: 200 μl) is transferred to a new 96-well microtiter plate and mixed with 50 μl of a substrate mix. The remaining supernatant is discarded, and the remaining intact cells are lysed by addition of 200 μl of lysis buffer (1% Triton-X100 in CM). […] The absorbance is measured on a spectrophotometer at λ1=490 nm and reference λ2=650 nm. […]

[7] = In vivo toxicity (weight loss, white blood cells) in PAI-1 +/+ and PAI-1 −/− mice; details: 75 mg/kg i.p.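 Also: nude META/Bom nu/nu mice of both sexes, 24-30 g, blood taken for hematology on day 3 (anticipated WBC nadir) and on day 5 after dosing.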
Method: We investigated the sensitivity of the intact mouse by a “comparison” of sensitivity between the PAI-I +/+ and −/− mice in terms of weight loss.
Furthermore blood was sampled on the day of expected nadir (day 3 (WBC)) and day 5, with hematological evaluation.
Mice: META™/Bom nu/nu; PAI-1+/+ and PAI-1 −/−. Size (gram): 24-30 grams females and males.
The drug was administered i.p., freshly made, relative to body weight, in a NaCl solvent (Batch 3036111) according to the following table:

## Nc1ccn([C@@H]2O[C@H](CO)[C@@H](O)[C@@H]2O)c(=O)n1 [ARA-C]
[1]
  sensitivity in clonogenic assay (colony formation): significantly more sensitive

## CC[C@]1(O)C[C@H]2CN(CCc3c([nH]c4ccccc34)[C@@](C(=O)OC)(c3cc4c(cc3OC)N(C=O)[C@H]3[C@@](O)(C(=O)OC)[C@H](OC(C)=O)[C@]5(CC)C=CCN6CC[C@]43[C@@H]65)C2)C1 [vincristine]
[1]
  sensitivity in clonogenic assay (colony formation): significantly more sensitive

## TNF-α
[2]
  resistance to induced cell death (LDH release): significantly more resistant
[3]; 2.5 ng/ml TNF-α, 24 h
  LDH release (% of total activity): 7.3%
[4]; 2.5 ng/ml TNF-α, 24 h
  LDH release (% of total activity): 46.3%
[4]
  sensitivity to treatment (LDH release): significantly more sensitive
  cell lysis (LDH release): dose-dependent cell lysis

## N.N.[Cl][Pt][Cl] [cisplatin]
[1]
  sensitivity in clonogenic assay (colony formation): significantly more sensitive

## COc1cccc2c1C(=O)c1c(O)c3c(c(O)c1C2=O)C[C@@](O)(C(=O)CO)C[C@@H]3O[C@H]1C[C@H](N)[C@H](O)[C@H](C)O1 [doxorubicin]
[1]
  sensitivity in clonogenic assay (colony formation): significantly more sensitive

## COc1cc([C@@H]2c3cc4c(cc3[C@@H](O[C@@H]3O[C@@H]5CO[C@@H](C)O[C@H]5[C@H](O)[C@H]3O)[C@H]3COC(=O)[C@H]23)OCO4)cc(OC)c1O [etoposide]
[1]
  sensitivity in clonogenic assay (colony formation): significantly more sensitive
[5]
  apoptosis induction: induced apoptosis
[2]
  resistance to induced cell death (LDH release): significantly more resistant
[6]; TIMP-1−/− compared with TIMP-1+/+ fibrosarcoma cells
  sensitivity to treatment (LDH release): significantly more sensitive
[6]; both TIMP-1−/− and TIMP-1+/+ fibrosarcoma cells
  cell lysis (LDH release): dose-dependent cell lysis
[3]; 1.25 μM etoposide, 48 h
  LDH release (% of total activity): 1%
[4]; 1.25 μM etoposide, 48 h
  LDH release (% of total activity): 41.10%
[4]
  sensitivity to treatment (LDH release): significantly more sensitive
  cell lysis (LDH release): dose-dependent cell lysis
[7]; both genotypes
  day of WBC nadir: 3 days
[7]; both genotypes, p=0.0003
  effect on white blood cell count (WBC): suppresses white blood cell count
[7]; p=0.99
  difference in WBC response between PAI-1 +/+ and PAI-1 −/− mice: no difference
[7]; treated versus untreated, p<0.0001
  weight loss in treated mice: significant loss of weight
[7]; PAI-1 +/+ female mice, 22.0 hours
  Drug induced effect on weight loss (weight, initial = 100): 101.2
[7]; PAI-1 +/+ female mice, 44.5 hours
  Drug induced effect on weight loss (weight, initial = 100): 98.3
[7]; PAI-1 +/+ female mice, 67.0 hours
  Drug induced effect on weight loss (weight, initial = 100): 98.2
[7]; PAI-1 +/+ female mice, 93.5 hours
  Drug induced effect on weight loss (weight, initial = 100): 98.4
[7]; PAI-1 +/+ female mice, 120.0 hours
  Drug induced effect on weight loss (weight, initial = 100): 97.7
[7]; PAI-1 +/+ male mice, 22.0 hours
  Drug induced effect on weight loss (weight, initial = 100): 97.6
[7]; PAI-1 +/+ male mice, 44.5 hours
  Drug induced effect on weight loss (weight, initial = 100): 94.9
[7]; PAI-1 +/+ male mice, 67.0 hours
  Drug induced effect on weight loss (weight, initial = 100): 92.9
[7]; PAI-1 +/+ male mice, 93.5 hours
  Drug induced effect on weight loss (weight, initial = 100): 91.0
[7]; PAI-1 +/+ male mice, 120.0 hours
  Drug induced effect on weight loss (weight, initial = 100): 91.8
[7]; PAI-1 −/− female mice, 22.0 hours
  Drug induced effect on weight loss (weight, initial = 100): 99.9
[7]; PAI-1 −/− female mice, 44.5 hours
  Drug induced effect on weight loss (weight, initial = 100): 99.1
[7]; PAI-1 −/− female mice, 67.0 hours
  Drug induced effect on weight loss (weight, initial = 100): 99.6
[7]; PAI-1 −/− female mice, 93.5 hours
  Drug induced effect on weight loss (weight, initial = 100): 98.7
[7]; PAI-1 −/− female mice, 120.0 hours
  Drug induced effect on weight loss (weight, initial = 100): 100.3
[7]; PAI-1 −/− male mice, 22.0 hours
  Drug induced effect on weight loss (weight, initial = 100): 99.1
[7]; PAI-1 −/− male mice, 44.5 hours
  Drug induced effect on weight loss (weight, initial = 100): 96.3
[7]; PAI-1 −/− male mice, 67.0 hours
  Drug induced effect on weight loss (weight, initial = 100): 96.4
[7]; PAI-1 −/− male mice, 93.5 hours
  Drug induced effect on weight loss (weight, initial = 100): 95.6
[7]; PAI-1 −/− male mice, 120.0 hours
  Drug induced effect on weight loss (weight, initial = 100): 97.0
